Tested on: Hypoxylon sp. CI-4
Assay: Response of Hypoxylon sp. CI-4 to epigenetic modifying agents
Assay type: cell-based
Conditions: lower concentrations seemingly ineffective
From the text: The wild-type Hypoxylon sp. had previously been found as an endophyte in Persea indica growing in the Laurisilva, Tenerife, Spain (Tomsheck et al., 2010, Microb Ecol 60:903-914). The fungus, growing on potato dextrose agar (PDA), was hyphal tipped in order to obtain a genetically pure strain, CI-4. This strain was used for epigenetic modulation using a histone deacetylase inhibitor, suberoylanilide hydroxamic acid (SAHA) and a DNA methyltransferase inhibitor, 5-azacytidine (AZA) as the modulating compounds (Cichewicz, 2010, Nat Prod Rep 27:11-22). Stock solutions of these compounds were prepared in DMSO and sterile deionized water, respectively. The fungus was grown on PDA supplemented with different concentrations of the epigenetic modulators (1, 5, 10, 20, 30, 50 and 100 μM) for 15 days. The numerous variants resulting from concentrations of modulators producing the most notable cultural, biological and VOC changes were selected for future study. The strains studied here were CI-4 (wild-type), CI4-B (strain selected after a 15 day exposure of CI-4 to 50 μM SAHA, hyphal tipped, transferred to PDA and studied without subsequent exposure to SAHA), CI4-SAHA (strain CI-4 exposed to 50 μM SAHA in all studies), and CI4-AZA (strain CI-4 exposed to 100 μM AZA in all studies).
Successful attempts were made to acquire a response of Hypoxylon sp. […]

Structure (SMILES): Nc1ncn([C@@H]2O[C@H](CO)[C@@H](O)[C@H]2O)c(=O)n1 [AZA, 4-amino-1-(β-D-ribofuranosyl)-1,3,5-triazin-2(1H)-one]
- Changes in the morphology and bioactivities of the cultures (growth of strain CI-4 on PD broth with 100 μM AZA): the most striking changes in the morphology and bioactivities of the cultures

Structure (SMILES): O=C(CCCCCCC(=O)Nc1ccccc1)NO [SAHA, N-hydroxy-N′-phenyl-octanediamide]
- Changes in the morphology and bioactivities of the cultures (growth of strain CI-4 on PD broth with 50 μM SAHA): the most striking changes in the morphology and bioactivities of the cultures
